Test results published in the supplement of paper PMC13380429.

What was measured:
Caco-2 [1] = assay: drug sensitivity score (DSS) for viability; higher = more toxic; extreme values may be limits of the assay; conditions: 72 h
HepG2 [2] = assay: as above; conditions: 72 h
Calu-3 [3] = assay: as above; conditions: 72 h
Vero E6 [4] = assay: as above; conditions: 72 h
U2OS [5] = assay: as above; conditions: 72 h
[6] = system: A549-ACE2 infected with SARS-CoV-2; assay: SARS-CoV-2 infection rate relative to DMSO; higher = more infection; conditions: 24 h
Caco-2 [7] = assay: cell viability relative to DMSO; higher = less toxic; conditions: 72 h
HepG2 [8] = assay: as above; conditions: 72 h
Calu-3 [9] = assay: as above; conditions: 72 h
Vero E6 [10] = assay: as above; conditions: 72 h
U2OS [11] = assay: as above; conditions: 72 h
[12] = system: A549-ACE2 infected with SARS-CoV-2; assay: morphology score (similarity to uninfected cells); higher = more like uninfected cells; conditions: 24 h
[13] = system: A549-ACE2 infected with SARS-CoV-2; assay: cell count relative to DMSO; higher = less toxic; conditions: 24 h
A549-ACE2 [14] = assay: phospholipidosis EC50; higher = less potent phospholipidosis inducer
Calu-3 [15] = assay: relative viability EC50 (midpoint between 100% and the lowest measured viability); higher = less toxic; conditions: 72 h
Vero E6 [16] = assay: as above; conditions: 72 h
A549-ACE2 [17] = assay: drug-induced phospholipidosis relative to tamoxifen; higher = more phospholipidosis
Caco-2 [18] = assay: relative viability EC50 (midpoint between 100% and the lowest measured viability); higher = less toxic; conditions: 72 h
HepG2 [19] = assay: as above; conditions: 72 h
U2OS [20] = assay: as above; conditions: 72 h

`Nc1ncccc1-c1nc2ccc(-c3ccccc3)nc2n1-c1ccc(C2(N)CCC2)cc1` [ARQ-092] gave a drug sensitivity score (Caco-2 [1]) of 7.1, a drug sensitivity score (HepG2 [2]) of 6.1 and a drug sensitivity score (Calu-3 [3]) of 8.7. For the same compound, the drug sensitivity score (Vero E6 [4]) was 3.3, the drug sensitivity score (U2OS [5]) was 2.7 and the SARS-CoV-2 infection rate ([6]; 0.3 µM) was 107%. It also gave an SARS-CoV-2 infection rate ([6]; 3 µM) of 51%, an SARS-CoV-2 infection rate ([6]; 10 µM) of 25% and an SARS-CoV-2 infection rate ([6]; 30 µM) of 78%. It also gave a cell viability (Caco-2 [7]; 1 nM) of 94.7%, a cell viability (Caco-2 [7]; 10 nM) of 97.9% and a cell viability (Caco-2 [7]; 100 nM) of 87.4%. It also gave a cell viability (Caco-2 [7]; 1000 nM) of 68%, a cell viability (Caco-2 [7]; 10000 nM) of 52.8% and a cell viability (HepG2 [8]; 1 nM) of 102%. The cell viability (HepG2 [8]; 10 nM) was 95.2%, the cell viability (HepG2 [8]; 100 nM) was 90.4% and the cell viability (HepG2 [8]; 1000 nM) was 72.4%. It also gave a cell viability (HepG2 [8]; 10000 nM) of 51.4%, a cell viability (Calu-3 [9]; 1 nM) of 98.3% and a cell viability (Calu-3 [9]; 10 nM) of 108%. For the same compound, the cell viability (Calu-3 [9]; 100 nM) was 95.7%, the cell viability (Calu-3 [9]; 1000 nM) was 76.3% and the cell viability (Calu-3 [9]; 10000 nM) was 8.8%. For the same compound, the cell viability (Vero E6 [10]; 1 nM) was 95.1%, the cell viability (Vero E6 [10]; 10 nM) was 102% and the cell viability (Vero E6 [10]; 100 nM) was 86.5%. It also gave a cell viability (Vero E6 [10]; 1000 nM) of 82.2%, a cell viability (Vero E6 [10]; 10000 nM) of 84.7% and a cell viability (U2OS [11]; 1 nM) of 99.8%. For the same compound, the cell viability (U2OS [11]; 10 nM) was 99.4%, the cell viability (U2OS [11]; 100 nM) was 102% and the cell viability (U2OS [11]; 1000 nM) was 91.9%. The cell viability (U2OS [11]; 10000 nM) was 68.2%, the morphology score ([12]; 0.3 µM) was -0.1 and the morphology score ([12]; 3 µM) was 0.72. It also gave a morphology score ([12]; 10 µM) of 0.54, a morphology score ([12]; 30 µM) of -0.21 and a cell count ([13]; 0.3 µM) of 96%. The cell count ([13]; 3 µM) was 98%, the cell count ([13]; 10 µM) was 94% and the cell count ([13]; 30 µM) was 46%. The “phospholipidosis EC50” value (A549-ACE2 [14]; 24 h) was 3220 nM, the “phospholipidosis EC50” value (A549-ACE2 [14]; 48 h) was 1250 nM and the “relative viability EC50” value (Calu-3 [15]) was 1520 nM. The “relative viability EC50” value (Vero E6 [16]) was over 10000 nM, the drug-induced phospholipidosis (A549-ACE2 [17]; 0.3 µM, 24 h) was 1.77% and the drug-induced phospholipidosis (A549-ACE2 [17]; 0.3 µM, 48 h) was 3.37%. The drug-induced phospholipidosis (A549-ACE2 [17]; 0.3 µM, 72 h) was 2.32%, the drug-induced phospholipidosis (A549-ACE2 [17]; 0.833333 µM, 24 h) was 12% and the drug-induced phospholipidosis (A549-ACE2 [17]; 0.833333 µM, 48 h) was 9.82%. For the same compound, the drug-induced phospholipidosis (A549-ACE2 [17]; 0.833333 µM, 72 h) was 7.77%, the drug-induced phospholipidosis (A549-ACE2 [17]; 3.33333 µM, 24 h) was 89.4% and the drug-induced phospholipidosis (A549-ACE2 [17]; 3.33333 µM, 48 h) was 86.6%. The drug-induced phospholipidosis (A549-ACE2 [17]; 6.66667 µM, 24 h) was 198%, the drug-induced phospholipidosis (A549-ACE2 [17]; 10 µM, 24 h) was 175% and the drug-induced phospholipidosis (A549-ACE2 [17]; 10 µM, 48 h) was 138%. For the same compound, the drug-induced phospholipidosis (A549-ACE2 [17]; 30 µM, 24 h) was 50.3% and the drug-induced phospholipidosis (A549-ACE2 [17]; 30 µM, 48 h) was 36.8%.
`Cc1ccc(NC(=O)Nc2cc(C(F)(F)F)ccc2F)cc1Nc1ccc2c(c1)NC(=O)/C2=C\c1ccc[nH]1` [GNF-5837] gave a drug sensitivity score (Caco-2 [1]) of 1.7, a drug sensitivity score (HepG2 [2]) of 3 and a drug sensitivity score (Calu-3 [3]) of 0. For the same compound, the drug sensitivity score (Vero E6 [4]) was 0.2, the drug sensitivity score (U2OS [5]) was 0.4 and the SARS-CoV-2 infection rate ([6]; 0.3 µM) was 103%. It also gave an SARS-CoV-2 infection rate ([6]; 3 µM) of 85%, an SARS-CoV-2 infection rate ([6]; 10 µM) of 22% and an SARS-CoV-2 infection rate ([6]; 30 µM) of 44%. It also gave a cell viability (Caco-2 [7]; 1 nM) of 105%, a cell viability (Caco-2 [7]; 10 nM) of 97.6% and a cell viability (Caco-2 [7]; 100 nM) of 103%. The cell viability (Caco-2 [7]; 1000 nM) was 94.5%, the cell viability (Caco-2 [7]; 10000 nM) was 75.7% and the cell viability (HepG2 [8]; 1 nM) was 92.5%. It also gave a cell viability (HepG2 [8]; 10 nM) of 98.7%, a cell viability (HepG2 [8]; 100 nM) of 98.5% and a cell viability (HepG2 [8]; 1000 nM) of 103%. For the same compound, the cell viability (HepG2 [8]; 10000 nM) was 39%, the cell viability (Calu-3 [9]; 1 nM) was 97.9% and the cell viability (Calu-3 [9]; 10 nM) was 96.4%. It also gave a cell viability (Calu-3 [9]; 100 nM) of 100%, a cell viability (Calu-3 [9]; 1000 nM) of 109% and a cell viability (Calu-3 [9]; 10000 nM) of 96.9%. For the same compound, the cell viability (Vero E6 [10]; 1 nM) was 107%, the cell viability (Vero E6 [10]; 10 nM) was 107% and the cell viability (Vero E6 [10]; 100 nM) was 97%. For the same compound, the cell viability (Vero E6 [10]; 1000 nM) was 106%, the cell viability (Vero E6 [10]; 10000 nM) was 83.5% and the cell viability (U2OS [11]; 1 nM) was 99.6%. For the same compound, the cell viability (U2OS [11]; 10 nM) was 97.2%, the cell viability (U2OS [11]; 100 nM) was 97.2% and the cell viability (U2OS [11]; 1000 nM) was 98.2%. It also gave a cell viability (U2OS [11]; 10000 nM) of 85.5%, a morphology score ([12]; 0.3 µM) of -0.15 and a morphology score ([12]; 3 µM) of 0.36. The morphology score ([12]; 10 µM) was 0.82, the morphology score ([12]; 30 µM) was 0.59 and the cell count ([13]; 0.3 µM) was 100%. The cell count ([13]; 3 µM) was 105%, the cell count ([13]; 10 µM) was 115% and the cell count ([13]; 30 µM) was 96%. For the same compound, the “phospholipidosis EC50” value (A549-ACE2 [14]; 24 h) was 2170 nM, the “phospholipidosis EC50” value (A549-ACE2 [14]; 48 h) was 2340 nM and the “phospholipidosis EC50” value (A549-ACE2 [14]; 72 h) was 2600 nM. For the same compound, the “relative viability EC50” value (Caco-2 [18]) was over 10000 nM, the “relative viability EC50” value (HepG2 [19]) was 3460 nM and the “relative viability EC50” value (Calu-3 [15]) was over 10000 nM. For the same compound, the “relative viability EC50” value (Vero E6 [16]) was over 10000 nM, the “relative viability EC50” value (U2OS [20]) was over 10000 nM and the drug-induced phospholipidosis (A549-ACE2 [17]; 0.3 µM, 24 h) was 4.96%. The drug-induced phospholipidosis (A549-ACE2 [17]; 0.3 µM, 48 h) was 4.94%, the drug-induced phospholipidosis (A549-ACE2 [17]; 0.3 µM, 72 h) was 3.67% and the drug-induced phospholipidosis (A549-ACE2 [17]; 0.833333 µM, 24 h) was 25.4%. The drug-induced phospholipidosis (A549-ACE2 [17]; 0.833333 µM, 48 h) was 9.4%, the drug-induced phospholipidosis (A549-ACE2 [17]; 0.833333 µM, 72 h) was 5.1% and the drug-induced phospholipidosis (A549-ACE2 [17]; 3.33333 µM, 24 h) was 116%. The drug-induced phospholipidosis (A549-ACE2 [17]; 3.33333 µM, 48 h) was 80.5%, the drug-induced phospholipidosis (A549-ACE2 [17]; 3.33333 µM, 72 h) was 59.1% and the drug-induced phospholipidosis (A549-ACE2 [17]; 6.66667 µM, 24 h) was 132%. It also gave a drug-induced phospholipidosis (A549-ACE2 [17]; 6.66667 µM, 48 h) of 95.6%, a drug-induced phospholipidosis (A549-ACE2 [17]; 6.66667 µM, 72 h) of 70.1% and a drug-induced phospholipidosis (A549-ACE2 [17]; 10 µM, 24 h) of 160%. For the same compound, the drug-induced phospholipidosis (A549-ACE2 [17]; 10 µM, 48 h) was 96.1%, the drug-induced phospholipidosis (A549-ACE2 [17]; 10 µM, 72 h) was 78.2% and the drug-induced phospholipidosis (A549-ACE2 [17]; 30 µM, 24 h) was 164%. For the same compound, the drug-induced phospholipidosis (A549-ACE2 [17]; 30 µM, 48 h) was 120% and the drug-induced phospholipidosis (A549-ACE2 [17]; 30 µM, 72 h) was 91.4%.
